According to PubChem BioAssay AID248 (DTP/NCI, 2004):
Where “and” joins values, the source holds several entries; their conditions need not be identical. Equal values may be shown once. Inconclusive results and toxic doses are left out. No stated cut-off is given here; in the data, active means T/C of 150% or more; inactive means T/C below 125%.

System: L1210 leukemia ip in BDF1 mice, survival T/C
Assay: NCI In Vivo Anticancer Drug Screen. Data for tumor model L1210 Leukemia (intraperitoneal) in B6D2F1 (BDF1) mice
Conditions: higher = longer survival
Procedure, shortened: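 Antitumor effect is assessed in tumor-bearing animals. Survival in the compound arm is compared with a vehicle-dosed control arm and expressed as their quotient.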

Measured: T/C

Cc1c2ccncc2c(C)c2c1[nH]c1ccccc12
inactive: endpoint: mean survival time, dose: 0.31 mg/kg/injection, schedule: Q#A X018 (ip), vehicle: other 102 % of control | endpoint: mean survival time, dose: 0.5 mg/kg/injection, schedule: Q01DX005 (ip), vehicle: other 105 % of control | endpoint: mean survival time, dose: 0.59 mg/kg/injection, schedule: Q03HX008 (ip), vehicle: other 94 % of control | endpoint: mean survival time, dose: 1.0 mg/kg/injection, schedule: Q01DX009 (ip), vehicle: other 111 % of control | endpoint: mean survival time, dose: 1.0 mg/kg/injection, schedule: Q01DX009 (ip), vehicle: water 107 % of control and 110 % of control | endpoint: mean survival time, dose: 1.0 mg/kg/injection, schedule: Q03HX024 (ip), vehicle: acid diluted with saline 110 % of control | endpoint: mean survival time, dose: 1.18 mg/kg/injection, schedule: Q03HX008 (ip), vehicle: other 98 % of control | endpoint: mean survival time, dose: 1.25 mg/kg/injection, schedule: Q#A X018 (ip), vehicle: other 110 % of control | endpoint: mean survival time, dose: 2.0 mg/kg/injection, schedule: Q01DX009 (ip), vehicle: other 111 % of control | endpoint: mean survival time, dose: 2.0 mg/kg/injection, schedule: Q03HX016 (ip), vehicle: clinical formulation 105 % of control | endpoint: mean survival time, dose: 2.0 mg/kg/injection, schedule: Q03HX016 (oral), vehicle: clinical formulation 95 % of control | endpoint: mean survival time, dose: 3.12 mg/kg/injection, schedule: Q01DX005 (oral), vehicle: saline 95 % of control | endpoint: mean survival time, dose: 3.12 mg/kg/injection, schedule: Q01DX009 (ip), vehicle: clinical formulation 102 % of control | endpoint: mean survival time, dose: 3.12 mg/kg/injection, schedule: Q04DX003 (ip), vehicle: clinical formulation 108 % of control | endpoint: mean survival time, dose: 3.12 mg/kg/injection, schedule: Q04DX009 (ip), vehicle: citric acid 101 % of control | endpoint: mean survival time, dose: 4.0 mg/kg/injection, schedule: Q01DX009 (oral), vehicle: clinical formulation 102 % of control | endpoint: mean survival time, dose: 4.0 mg/kg/injection, schedule: Q03HX008 (oral), vehicle: clinical formulation 109 % of control | endpoint: mean survival time, dose: 4.0 mg/kg/injection, schedule: Q03HX016 (oral), vehicle: clinical formulation 105 % of control | endpoint: mean survival time, dose: 4.0 mg/kg/injection, schedule: Q03HX024 (oral), vehicle: clinical formulation 110 % of control | endpoint: mean survival time, dose: 5.0 mg/kg/injection, schedule: Q01DX015 (oral), vehicle: carboxymethylcellulose (CMC) 105 % of control | endpoint: mean survival time, dose: 6.2 mg/kg/injection, schedule: Q01DX001 (ip), vehicle: saline 108 % of control | endpoint: mean survival time, dose: 6.2 mg/kg/injection, schedule: Q01DX Z (oral), vehicle: saline 110 % of control | endpoint: mean survival time, dose: 6.25 mg/kg/injection, schedule: Q01DX005 (oral), vehicle: saline 104 % of control | endpoint: mean survival time, dose: 6.25 mg/kg/injection, schedule: Q01DX005 (oral), vehicle: water 106 % of control | endpoint: mean survival time, dose: 6.25 mg/kg/injection, schedule: Q04DX003 (ip), vehicle: citric acid 107 % of control | endpoint: mean survival time, dose: 6.25 mg/kg/injection, schedule: Q04DX003 (ip), vehicle: clinical formulation 109 % of control and 110 % of control | endpoint: mean survival time, dose: 6.25 mg/kg/injection, schedule: Q04DX009 (ip), vehicle: citric acid 110 % of control | endpoint: mean survival time, dose: 8.0 mg/kg/injection, schedule: Q04DX003 (ip), vehicle: Klucel (hydroxypropylcellulose) (HPC) 110 % of control | endpoint: mean survival time, dose: 8.0 mg/kg/injection, schedule: Q04DX003 (ip), vehicle: acid diluted with saline 109 % of control | endpoint: mean survival time, dose: 9.37 mg/kg/injection, schedule: Q01DX001 (ip), vehicle: other 103 % of control | endpoint: mean survival time, dose: 9.37 mg/kg/injection, schedule: Q01DX001 (sc), vehicle: other 103 % of control and 104 % of control | endpoint: mean survival time, dose: 9.38 mg/kg/injection, schedule: Q01DX001 (ip), vehicle: other 100 % of control | endpoint: mean survival time, dose: 9.38 mg/kg/injection, schedule: Q04DX003 (ip), vehicle: clinical formulation 110 % of control | endpoint: mean survival time, dose: 10.0 mg/kg/injection, schedule: Q01DX015 (oral), vehicle: carboxymethylcellulose (CMC) 110 % of control | endpoint: mean survival time, dose: 12.5 mg/kg/injection, schedule: Q01DX005 (oral), vehicle: water 109 % of control | endpoint: mean survival time, dose: 12.5 mg/kg/injection, schedule: Q04DX003 (oral), vehicle: saline 106 % of control | endpoint: mean survival time, dose: 12.5 mg/kg/injection, schedule: Q04DX003 (oral), vehicle: water 104 % of control | endpoint: mean survival time, dose: 16.0 mg/kg/injection, schedule: Q03HX008 (ip), vehicle: clinical formulation 94 % of control | endpoint: mean survival time, dose: 16.0 mg/kg/injection, schedule: Q08DX002 (oral), vehicle: clinical formulation 100 % of control | endpoint: mean survival time, dose: 18.75 mg/kg/injection, schedule: Q01DX001 (sc), vehicle: other 107 % of control | endpoint: mean survival time, dose: 25.0 mg/kg/injection, schedule: Q01DX001 (oral), vehicle: saline with Tween-80 103 % of control | endpoint: mean survival time, dose: 25.0 mg/kg/injection, schedule: Q01DX001 (oral), vehicle: water 104 % of control | endpoint: mean survival time, dose: 25.0 mg/kg/injection, schedule: Q01DX009 (ip), vehicle: citric acid 108 % of control | endpoint: mean survival time, dose: 25.0 mg/kg/injection, schedule: Q01DX009 (ip), vehicle: clinical formulation 101 % of control | endpoint: mean survival time, dose: 25.0 mg/kg/injection, schedule: Q04DX003 (oral), vehicle: saline 104 % of control | endpoint: mean survival time, dose: 32.0 mg/kg/injection, schedule: Q01DX001 (oral), vehicle: clinical formulation 106 % of control | endpoint: mean survival time, dose: 32.0 mg/kg/injection, schedule: Q03HX008 (oral), vehicle: clinical formulation 110 % of control | endpoint: mean survival time, dose: 37.5 mg/kg/injection, schedule: Q01DX001 (oral), vehicle: other 110 % of control | endpoint: mean survival time, dose: 37.5 mg/kg/injection, schedule: Q01DX001 (sc), vehicle: saline 101 % of control and 109 % of control | endpoint: mean survival time, dose: 40.0 mg/kg/injection, schedule: Q#A X018 (ip), vehicle: other 105 % of control | endpoint: mean survival time, dose: 50.0 mg/kg/injection, schedule: Q01DX001 (oral), vehicle: water 104 % of control | endpoint: mean survival time, dose: 50.0 mg/kg/injection, schedule: Q01DX009 (ip), vehicle: saline with Tween-80 95 % of control | endpoint: mean survival time, dose: 50.0 mg/kg/injection, schedule: Q01DX009 (oral), vehicle: saline 110 % of control | endpoint: mean survival time, dose: 64.0 mg/kg/injection, schedule: Q04DX003 (ip), vehicle: Klucel (hydroxypropylcellulose) (HPC) 94 % of control and 95 % of control | endpoint: mean survival time, dose: 75.0 mg/kg/injection, schedule: Q01DX001 (oral), vehicle: saline 108 % of control | endpoint: mean survival time, dose: 75.0 mg/kg/injection, schedule: Q01DX001 (sc), vehicle: saline 103 % of control and 105 % of control | endpoint: mean survival time, dose: 75.0 mg/kg/injection, schedule: Q01DX009 (ip), vehicle: saline with Tween-80 98 % of control | endpoint: mean survival time, dose: 75.0 mg/kg/injection, schedule: Q04DX003 (ip), vehicle: clinical formulation 94 % of control | endpoint: mean survival time, dose: 75.0 mg/kg/injection, schedule: Q04DX003 (ip), vehicle: lactic acid 92 % of control | endpoint: mean survival time, dose: 80.0 mg/kg/injection, schedule: Q01DX009 (ip), vehicle: other 104 % of control | endpoint: mean survival time, dose: 80.0 mg/kg/injection, schedule: Q#A X018 (ip), vehicle: other 104 % of control | endpoint: mean survival time, dose: 80.0 mg/kg/injection, schedule: Q#A X018 (oral), vehicle: other 96 % of control | endpoint: mean survival time, dose: 100.0 mg/kg/injection, schedule: Q01DX009 (ip), vehicle: saline with Tween-80 93 % of control | endpoint: mean survival time, dose: 100.0 mg/kg/injection, schedule: Q04DX003 (oral), vehicle: water 110 % of control | endpoint: mean survival time, dose: 128.0 mg/kg/injection, schedule: Q01DX005 (ip), vehicle: saline 100 % of control | endpoint: mean survival time, dose: 128.0 mg/kg/injection, schedule: Q01DX009 (ip), vehicle: water 103 % of control and 108 % of control | endpoint: mean survival time, dose: 128.0 mg/kg/injection, schedule: Q08DX002 (ip), vehicle: clinical formulation 101 % of control | endpoint: mean survival time, dose: 150.0 mg/kg/injection, schedule: Q01DX001 (oral), vehicle: saline with Tween-80 108 % of control | endpoint: mean survival time, dose: 150.0 mg/kg/injection, schedule: Q01DX001 (sc), vehicle: saline 103 % of control and 110 % of control | endpoint: mean survival time, dose: 160.0 mg/kg/injection, schedule: Q01DX015 (oral), vehicle: carboxymethylcellulose (CMC) 104 % of control | endpoint: mean survival time, dose: 170.0 mg/kg/injection, schedule: Q01DX Z (oral), vehicle: saline 105 % of control | endpoint: mean survival time, dose: 200.0 mg/kg/injection, schedule: Q04DX003 (ip), vehicle: water 104 % of control | endpoint: mean survival time, dose: 256.0 mg/kg/injection, schedule: Q01DX005 (ip), vehicle: other 110 % of control | endpoint: mean survival time, dose: 256.0 mg/kg/injection, schedule: Q01DX009 (ip), vehicle: other 104 % of control | endpoint: mean survival time, dose: 300.0 mg/kg/injection, schedule: Q01DX001 (sc), vehicle: saline 110 % of control | endpoint: mean survival time, dose: 300.0 mg/kg/injection, schedule: Q04DX003 (ip), vehicle: saline with Tween-80 103 % of control | endpoint: mean survival time, dose: 300.0 mg/kg/injection, schedule: Q04DX003 (ip), vehicle: saline 100 % of control | endpoint: mean survival time, dose: 400.0 mg/kg/injection, schedule: Q04DX002 (ip), vehicle: Klucel (hydroxypropylcellulose) (HPC) 97 % of control | endpoint: mean survival time, dose: 400.0 mg/kg/injection, schedule: Q04DX003 (oral), vehicle: saline 93 % of control | endpoint: mean survival time, dose: 600.0 mg/kg/injection, schedule: Q01DX001 (ip), vehicle: Klucel (hydroxypropylcellulose) (HPC) 103 % of control | endpoint: mean survival time, dose: 600.0 mg/kg/injection, schedule: Q01DX001 (sc), vehicle: saline 109 % of control and 110 % of control | endpoint: mean survival time, dose: 960.0 mg/kg/injection, schedule: Q01DX001 (ip), vehicle: other 110 % of control | endpoint: median survival time, dose: 2.0 mg/kg/injection, schedule: Q03HX008 (oral), vehicle: other 100 % of control | endpoint: median survival time, dose: 4.0 mg/kg/injection, schedule: Q01DX009 (oral), vehicle: other 111 % of control | endpoint: median survival time, dose: 32.0 mg/kg/injection, schedule: Q01DX009 (oral), vehicle: other 100 % of control | endpoint: median survival time, dose: 32.0 mg/kg/injection, schedule: Q01DX009 (sc), vehicle: water 100 % of control | endpoint: median survival time, dose: 64.0 mg/kg/injection, schedule: Q01DX009 (oral), vehicle: other 94 % of control | endpoint: median survival time, dose: 256.0 mg/kg/injection, schedule: Q01DX001 (sc), vehicle: water 100 % of control | endpoint: median survival time, dose: 400.0 mg/kg/injection, schedule: Q04DX003 (ip), vehicle: saline with Tween-80 111 % of control
